Results from ChEMBL document CHEMBL1201862, “PubChem BioAssay data set” (2004).
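How tested: cells in 96-well plates exposed to compound for 48 hours at five concentrations. Abbreviation: GI50, concentration required for 50% inhibition of growth.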 Activity calls are given as the source filed them. Cut-off read from the data, not from the text of the source: active = GI50 up to about 1.1 µM and inactive = higher.

Key:
Experiment in all cases: inhibition of tumour cell growth, NCI panel, 48 h
[1] = tested on: Hs-578T
[2] = tested on: NCI-H460
[3] = tested on: BT-549
[4] = tested on: KM12
[5] = tested on: MOLT-4
[6] = tested on: NCI-H226
[7] = tested on: COLO 205
[8] = tested on: NCI/ADR-RES
[9] = tested on: A498
[10] = tested on: TK-10
[11] = tested on: SF-295
[12] = tested on: Malme-3M
[13] = tested on: OVCAR-4
[14] = tested on: 786-0
[15] = tested on: EKVX
[16] = tested on: SNB-75
[17] = tested on: MDA-MB-231
[18] = tested on: CCRF-CEM
[19] = tested on: HOP-92
[20] = tested on: SF-539
[21] = tested on: UACC-62
[22] = tested on: HCT-116
[23] = tested on: HOP-62
[24] = tested on: M14
[25] = tested on: OVCAR-8
[26] = tested on: SK-OV-3
[27] = tested on: SW-620
[28] = tested on: HCT-15
[29] = tested on: UACC-257
[30] = tested on: DU-145
[31] = tested on: PC-3
[32] = tested on: A549
[33] = tested on: SNB-19
[34] = tested on: SK-MEL-5
[35] = tested on: HCC 2998
[36] = tested on: SK-MEL-2
[37] = tested on: U-251
[38] = tested on: K562
[39] = tested on: NCI-H23
[40] = tested on: IGROV-1
[41] = tested on: SF-268
[42] = tested on: MCF7
[43] = tested on: HL-60
[44] = tested on: RXF 393
[45] = tested on: CAKI-1
[46] = tested on: RPMI-8226
[47] = tested on: SN12C
[48] = tested on: MDA-N
[49] = tested on: ACHN
[50] = tested on: OVCAR-3
[51] = tested on: UO-31
[52] = tested on: HT-29
[53] = tested on: SK-MEL-28
[54] = tested on: OVCAR-5
[55] = tested on: T47D
[56] = tested on: SR
[57] = tested on: LOX IMVI

With `CC(C)/C(Cl)=N\OC(=O)Nc1ccc(F)cc1F` the GI50 [1] was 23.3 µM (inactive), the GI50 [2] was 20.7 µM (inactive) and the GI50 [3] was 13 µM (inactive). For the same compound, the GI50 [4] was 17.7 µM (inactive), the GI50 [5] was 1.85 µM (inactive) and the GI50 [6] was 15.8 µM (inactive). The GI50 [7] was 1.87 µM (inactive), the GI50 [8] was 7.05 µM (inactive) and the GI50 [9] was 17 µM (inactive). For the same compound, the GI50 [10] was 5.19 µM (inactive), the GI50 [11] was 15.1 µM (inactive) and the GI50 [12] was 1.66 µM (inactive). The GI50 [13] was 3.76 µM (inactive), the GI50 [14] was 3.9 µM (inactive) and the GI50 [15] was 6.53 µM (inactive). For the same compound, the GI50 [16] was 17.3 µM (inactive), the GI50 [17] was 2.21 µM (inactive) and the GI50 [18] was 0.836 µM (active). The GI50 [19] was 1.82 µM (inactive), the GI50 [20] was 15.8 µM (inactive) and the GI50 [21] was 16.9 µM (inactive). For the same compound, the GI50 [22] was 3.78 µM (inactive), the GI50 [23] was 17.6 µM (inactive) and the GI50 [24] was 2.98 µM (inactive). The GI50 [25] was 15.6 µM (inactive), the GI50 [26] was 17.1 µM (inactive) and the GI50 [27] was 1.78 µM (inactive). The GI50 [28] was 7.67 µM, the GI50 [29] was 14.1 µM (inactive) and the GI50 [30] was 17.8 µM (inactive). The GI50 [31] was 17.2 µM (inactive), the GI50 [32] was 18.4 µM (inactive) and the GI50 [33] was 19.5 µM (inactive). The GI50 [34] was 14.3 µM (inactive), the GI50 [35] was 18.3 µM (inactive) and the GI50 [36] was 13.6 µM (inactive). The GI50 [37] was 18 µM (inactive), the GI50 [38] was 1.26 µM (inactive) and the GI50 [39] was 14.3 µM (inactive). For the same compound, the GI50 [40] was 16 µM (inactive), the GI50 [41] was 19.5 µM (inactive) and the GI50 [42] was 3.43 µM (inactive). The GI50 [43] was 0.486 µM (active), the GI50 [44] was 3.72 µM (inactive) and the GI50 [45] was 19.3 µM (inactive). For the same compound, the GI50 [46] was 4.69 µM (inactive), the GI50 [47] was 6.78 µM (inactive) and the GI50 [48] was 9.33 µM (inactive). For the same compound, the GI50 [49] was 3.36 µM (inactive), the GI50 [50] was 2.68 µM (inactive) and the GI50 [51] was 7.52 µM (inactive). For the same compound, the GI50 [52] was 3.82 µM (inactive), the GI50 [53] was 11 µM (inactive) and the GI50 [54] was 17.4 µM (inactive). For the same compound, the GI50 [55] was 14.4 µM (inactive), the GI50 [56] was 1.67 µM (inactive) and the GI50 [57] was 1.66 µM (inactive).
